Where two headings read alike, the source gives them in different places.
Columns and labels:
[1] = target: T1, Adenosine A-1 receptor (Rattus norvegicus, UniProt P25099); assay: Test for affinity for brain adenosine A-1 receptor binding sites ([3H]cyclohexyladenosine displacement); conditions: ratio of A-2 Ki to A-1 Ki
T1 sequence (P25099 1-326): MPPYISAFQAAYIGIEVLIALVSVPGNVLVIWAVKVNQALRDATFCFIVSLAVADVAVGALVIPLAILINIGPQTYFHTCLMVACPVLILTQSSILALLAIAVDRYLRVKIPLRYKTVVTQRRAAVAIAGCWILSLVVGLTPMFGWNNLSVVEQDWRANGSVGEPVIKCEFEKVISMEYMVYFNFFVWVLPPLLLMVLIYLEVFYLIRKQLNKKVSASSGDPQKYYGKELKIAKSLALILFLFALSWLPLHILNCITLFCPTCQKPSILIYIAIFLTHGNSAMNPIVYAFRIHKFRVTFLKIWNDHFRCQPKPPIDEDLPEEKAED

[2] = test system: A-2 receptors; conditions: rank order; cited from earlier work
[3] = test system: A-1 receptors; conditions: cited from earlier work
[4] = target: T1, Adenosine A-1 receptor
[5] = test system: effects of adenosine analogs on heart rate and blood pressure; conditions: heart rate compared with blood pressure; cited from earlier work

## CCCOC1=Nc2c(cnn2-c2ccccc2)C2=N[C@H](C)[C@@H](c3ccccc3)N12 [Compound 7, (2R-trans)-2,7-dihydro-2-methyl-3,7-diphenyl-5-propoxy-3H-Imidazo-[1,2-c]pyrazolo[4,3-s]pyrimidine]
[1]
  A-2 Ki/A-1 Ki: 1.17

## CCNC(=O)[C@H]1O[C@@H](n2cnc3c(N)ncnc32)[C@H](O)[C@@H]1O [NECA, N-5'-ethylcarboxamidoadenosine]
[2]
  order of potency at A-2 receptors: NECA>2-chloroadenosine>R-PIA>CHA

## C1=Nc2c(cnn2-c2ccccc2)C2=N[C@H](Cc3ccccc3)CN12 [Compound 3, (R)-2,7-dihydro-7-phenyl-2-(phenylmethyl)-3H-imidazo-[1,2-c]pyrazolo-[4,3-e]pyrimidine]
[1]
  A-2 Ki/A-1 Ki: 13.20

## Nc1nc(Cl)nc2c1ncn2[C@@H]1O[C@H](CO)[C@@H](O)[C@H]1O [2-chloroadenosine]
[2]
  order of potency at A-2 receptors: NECA>2-chloroadenosine>R-PIA>CHA

## CCCn1c(=O)c2[nH]c(-c3ccc(OCC(=O)O)cc3)nc2n(CCC)c1=O [XCC]
[3]; A-1 versus A-2, in vitro
  adenosine receptor selectivity: non-selective

## C1=Nc2c(ncn2-c2ccccc2)C2=N[C@H](Cc3ccccc3)CN12 [Compound 6, (R)-7,8-dihydro-3-phenyl-8-(phenylmethyl)-3H-diimidazo[1,2-c: 4',5'-e]pyrimidine]
[4]
  A-2 Ki/A-1 Ki: 16.40

## CCCn1c(=O)c2[nH]c(-c3ccc(OCC(=O)NCCN)cc3)nc2n(CCC)c1=O [XAC]
[3]; A-1 Ki compared with Ki at A-2 receptors of the brain slice assay
  higher affinity for A-1 adenosine receptors: 40 fold
[5]
  antagonizing the effects of adenosine analogs on heart rate versus blood pressure: much more potent in antagonizing the effects of adenosine analogs on heart rate than on blood pressure

Reference: US5086176A, “Tricyclic fused adenine derivatives” (priority 1991, dated 1992)
